Experimental data: paper PMC6751206, “Epigenetic re-wiring of breast cancer by pharmacological targeting of C-terminal binding protein” (Cell Death & Disease, 2019)

Experiments:
CtBP1/CtBP2 heterodimer [1] = target: T1, CtBP1/CtBP2 heterodimer (Homo sapiens, UniProt P56545+Q13363); assay: acceptor photobleaching FRET of CtBP1/CtBP2 dimerization in MDA-MB-231 cells; type: cell-based; conditions: 10 μM compound; live-cell heterodimerization read-out
T1 construct: CFP/YFP fusions of CtBP1 and CtBP2 (pSCFP3A, pSYFP2); heterodimer

CtBP1/CtBP2 heterodimer [2] = target: T1, CtBP1/CtBP2 heterodimer; assay: as above; type: cell-based; conditions: live-cell heterodimerization read-out; dose-response

Compound	FRET signal decrease at 10 μM (CtBP1/CtBP2 heterodimer [1])	IC50 (CtBP1/CtBP2 heterodimer [2]) [µM]
CC(C)C(NC(=O)C(=O)O)C(=O)O (stereo not drawn) [CI19]	significant decrease in the paired CtBP1-YFP/CtBP2-CFP FRET signal, after incubation with CI19, CI22, CI23 or CI24	
O=C(O)C(=O)Nc1ccccc1 [CI22]	significant decrease in the paired CtBP1-YFP/CtBP2-CFP FRET signal, after incubation with CI19, CI22, CI23 or CI24	
Nc1nc(C(=O)C(=O)O)cs1 [CI24]		10 to 20
